Data from patent publication US20240208950A1, “COMPOSITIONS AND METHODS FOR TREATMENT OF CERVICAL AND OVARIAN CANCER” (SOUTH DAKOTA BOARD OF REGENTS, priority 2021, published 2024).

Columns and labels:
Type in all cases: cell-based, human
[1] = tested on: cleaved PARP in CaSki cells; assay: Western blot for cleavage of PARP, CaSki; details: 24 hours
Description: The effect of Br-ORM on protein expression in cervical cancer cells were determined by Western blot analysis by using specific antibodies.
It was observed that Br-ORM exerts potent growth inhibitory effects, so the effect of Br-ORM on apoptosis induction was further examined. Cervical cancer cells were treated with Br-ORM (10 μM) for 24 hours and the apoptosis inducing effect of Br-ORM was analyzed by Annexin V staining and Western blot analysis for cleavage in PARP protein.
FIG. 13. Br-ORM decreases proliferation and colony formation of cervical cancer cells. FIG. 13A. Effect of Br-ORM on cell viability of CaSki cells (i) and SiHa cells (ii). Briefly, cervical cancer cells were seeded (2500) in each well of 96-well plate and after overnight incubation; cells were treated with indicated concentrations of Br-ORM for 24 hours. Cell viability was assessed by MTS assay. […] Bar graphs indicating quantification of colony formation in CaSki (i), and SiHa (ii) cells of cervical cancer with respect to vehicle control. […] Briefly, cervical cancer cells were treated with Br-ORM (10 μM) for 24 hours and the apoptosis inducing effect of Br-ORM was analyzed by Annexin V staining. […] The equal loading of protein in each lane was determined by probing the blots with β-actin antibody (FIG. 13F). […] Br-ORM arrests cell cycle in G1/S phase as determined by flow cytometry. […]

CaSki cells [2] = assay: Cell migration (agarose bead, scratch wound, Boyden chamber), CaSki; details: 0 and 48 hours
Description: FIGS. 7B and 7D show the effect of ORM-Br on motility potential of CaSki cells (FIG. 7B) and SiHa cells (FIG. 7D) as predicted by agarose bead assay. The images shown in FIGS. 7A-7D represent the migratory cells (MC) in control and ORM-Br treated groups at 0 and 48 hours. In FIGS. 7B and 7D, AB means agarose beads. In FIGS. 7A-7D the images magnification were at 4.
Cell motility was performed by in vitro scratch wound assay. Briefly, cells were seeded in a 12-wells plate and after 80-90% confluency a standardized wound was made using a 200 μL micropipette tip. Cells were then treated with Br-ORM (10 μM) and photographed by phase contrast microscopy. […]
(§1) FIG. 14. […] Effect of Br-ORM on cell migration of cervical cancer cells as determined by agarose bead (FIG. 14A), scratch wound healing (FIG. 14B), and Boyden chamber assay (FIG. 14C). […] Closure of wound was determined and photographed using phase contrast microscopy. […] Bar graph represent the quantification of migrated CaSki cells of control and Br-ORM treated groups (FIG. 14C(ii)). […] Effect of Br-ORM treatment on invasion of CaSki cells as determined by a commercially available kit (BD Biosciences) as described in materials and methods. In brief, 24 hours post-treatment of Br-ORM, invaded cells were fixed, stained and counted. […] Bar graph represent the quantification of invaded CaSki cells of control and Br-ORM treated groups (FIG. 14D(ii)). […]

CaSki cells [3] = assay: Cell invasion assay (Matrigel / Boyden chamber), CaSki; details: 24 hours
Description: FIGS. 8A and 8B show the effect of ORM-Br on invasion of CaSki (FIG. 8A) and SiHa (FIG. 8B) cell lines in Boyden chamber and xCELLigence assay. The images represent the invaded cells of control and ORM-Br-treated CaSki and SiHa cells as determined by Boyden Chamber kit. The magnification was at 20 for the images of FIGS. 8A and 8B.
Cell invasion assay was performed using BD Biocoat Matrigel Invasion Chambers (BD Biosciences, San Jose, CA, USA), as has been described in the art. Cells were treated with Br-ORM followed by incubation for 24 hours. Cells were fixed using methanol and were stained with crystal violet. […]
as §1

For `COc1ccc2c(c1)OC(C)(C)C(c1ccc(Br)cc1)C2c1ccc(OCCN2CCCC2)cc1` (centres unmarked) [ORM-Br], which “protein levels of cleaved PARP” value [1] is on record?
Its value is “dose dependently enhanced the protein levels of cleaved PARP”.

And the “cell migration / motility” value (CaSki cells [2])?
The value was “inhibits the migration”.

And the “cell migration / motility” value (CaSki cells [2]; listed as Br-ORM)?
The value was “dose dependent inhibition of migration abilities”.

And the cell invasion (CaSki cells [3])?
Its cell invasion is “inhibits the invasion”.

And the cell invasion (CaSki cells [3]; listed as Br-ORM)?
The cell invasion was “effectively inhibited invasion”.
